In article PMC4898691, “Structure of a Berberine Bridge Enzyme-Like Enzyme with an Active Site Specific to the Plant Family Brassicaceae” (PLoS ONE, 2016):

Molecular target: T1, AtBBE-like 28 (Arabidopsis thaliana, UniProt Q9FI21)
T1 construct: gene At5g44440; two chains in asymmetric unit
T1 sequence (Q9FI21 28-533): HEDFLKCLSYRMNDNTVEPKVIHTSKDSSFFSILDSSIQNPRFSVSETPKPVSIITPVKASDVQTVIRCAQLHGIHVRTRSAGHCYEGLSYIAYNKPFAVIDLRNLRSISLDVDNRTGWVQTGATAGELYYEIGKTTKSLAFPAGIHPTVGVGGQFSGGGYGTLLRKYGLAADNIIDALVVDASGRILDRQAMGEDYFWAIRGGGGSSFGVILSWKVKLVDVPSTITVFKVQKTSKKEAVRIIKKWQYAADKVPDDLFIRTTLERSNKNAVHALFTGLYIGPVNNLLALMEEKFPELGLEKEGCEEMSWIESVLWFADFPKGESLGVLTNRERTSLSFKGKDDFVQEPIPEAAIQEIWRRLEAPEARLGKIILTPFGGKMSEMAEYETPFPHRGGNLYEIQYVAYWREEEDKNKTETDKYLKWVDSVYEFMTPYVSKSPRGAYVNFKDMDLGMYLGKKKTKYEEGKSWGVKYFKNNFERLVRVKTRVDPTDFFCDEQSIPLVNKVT
Experiment: X-ray crystallography ([…] A)
Type: binding
Conditions: covalent; mono-covalent, His111 to flavin 8alpha-position; crystals at 277 K, HEPES pH 7.0, Jeffamine ED 2001

Cc1cc2nc3c(=O)[nH]c(=O)nc-3n(C[C@H](O)[C@H](O)[C@H](O)COP(=O)(O)OP(=O)(O)OC[C@H]3O[C@@H](n4cnc5c(N)ncnc54)[C@H](O)[C@@H]3O)c2cc1C [FAD]
X-ray crystallography (1.85 A): the covalent linkage established by the conserved GGHD motif was clearly seen in the crystal structure
